Like-named read-outs stand apart in the source and are kept apart here.

For series [1], the system named is Hs683. In words: Cytotoxicity MTS assay, 72 h. The series is classed as cell-based, human. As to conditions: for IC50: Homo sapiens, Hs 683, Hs683, 72 h, MTS. An excerpt:
(§1) The human colon carcinoma cell line HCT116 wild type (p53^+/+), human breast carcinoma cell line MCF-7 and glioblastoma cell line Hs683 were obtained from ATCC. The glioma cell line U-251 was purchased from Sigma Aldrich and the normal human fibroblast cell lines NHDF from PromoCell. The human colon cancer cell line HCT116 with a p53 deletion (p53^-/-) was kindly provided by Prof. M. Rusin from the Maria Sklodowska-Curie Memorial Cancer Centre and Institute of Oncology in Gliwice, Poland. Cells were grown as monolayer cultures in Dulbecco’s modified Eagle’s medium with an antibiotic gentamicin (200 μL/100 mL medium) in 75 cm^2 flasks (Nunc). DMEM for HCT116, MCF-7, U-251, Hs683 were supplemented with 12% heat-inactivated fetal bovine serum (Sigma) and for NHDF with 15% non-inactivated fetal bovine serum (Sigma). All the cell lines were cultured under standard conditions at 37°C in a humidified atmosphere at 5% CO2.
(§2) The cells were seeded in 96-well plates (Nunc) at a density of 5,000 cells/well (HCT116, MCF-7, U-251, Hs683) and 4,000 cells/well (NHDF) and incubated at 37°C for 24 h. The assay was performed following a 72 h incubation with varying concentrations of the compounds that were tested. Then, 20 μL of The CellTiter 96®AQueous One Solution-MTS (Promega) solution was added to each well (with 100 μL DMEM without phenol red) and incubated for 1 h at 37°C. The optical densities of the samples were analyzed at 490 nm using a multi-plate reader (Synergy 4, Bio Tek). Results were expressed as a percentage of the control and calculated as the inhibitory concentration (IC50) values using GraphPad Prism 5. The IC50 parameter was defined as the compound concentration that was necessary to reduce the proliferation of cells to 50% of the untreated control. Each individual compound was tested in triplicate in a single experiment with each experiment being repeated four to five times.
A general note: Formazan colour is commonly taken as a measure of viable cells.

The subject of series [2] is HCT116 p53^-/-. In words: Cytotoxicity MTS assay, 72 h. The series is classed as cell-based, human. As to conditions: for IC50: Homo sapiens, HCT-116, HCT116 p53^-/-, 72 h, MTS.
Text: as §1, §2

In series [3] the test system is HCT116 p53^+/+. Put plainly: Cytotoxicity MTS assay, 72 h. The series is classed as cell-based, human. As to conditions: for IC50: Homo sapiens, HCT-116, HCT116 p53^+/+, 72 h, MTS.
Text: as §1, §2

Series [4] concerns MCF-7. In words: Cytotoxicity MTS assay, 72 h. The series is classed as cell-based, human. To be noted: for IC50: Homo sapiens, MCF7, MCF-7, 72 h, MTS.
Text: as §1, §2

Series [5] relates to U-251. In words: Cytotoxicity MTS assay, 72 h. The series is classed as cell-based, human. As to conditions: for IC50: Homo sapiens, U-251, 72 h, MTS.
Text: as §1, §2

The subject of series [6] is NHDF. Put plainly: Cytotoxicity MTS assay, 72 h. The series is classed as cell-based. As to conditions: Homo sapiens, NHDF normal fibroblasts.
Text: as §1, §2

Series [7] concerns cancer cell lines. Put plainly: Cytotoxicity MTS assay, whole panel of cancer cell lines. The series is classed as cell-based. To be noted: Homo sapiens, Hs 683; all the cancer lines, Hs683 an exception.
Text: as §1
The cells were seeded in 96-well plates (Nunc) at a density of 5,000 cells/well (HCT116, MCF-7, U-251, Hs683) and 4,000 cells/well (NHDF) and incubated at 37°C for 24 h. […] The optical densities of the samples were analyzed at 490 nm using a multi-plate reader (Synergy 4, Bio Tek). Results were expressed as a percentage of the control and calculated as the inhibitory concentration (IC50) values using GraphPad Prism 5. […]

Series [8] in a line: Protonation constants by pH-dependent UV-visible spectrophotometric titration. The series is classed as physicochemical. As to conditions: MeOH/H2O 80/20 by weight, I = 0.1 M KCl, T = 25.0°C. Here is the method:
Spectrophotometric titrations were performed in order to probe the acid-based equilibria that were associated with each ligand and to determine the pH range over which the chelator was in its charge neutral form. This property is important in understanding the passage of a molecule through the cell membranes, as charged chelators have poor access. These studies were performed in an 80% (w/w) MeOH/H2O solvent mixture due to the low solubility of these compounds in pure water. The fully protonated forms of the ligands have four L^1-L^7 or five L^8-L^12 dissociable protons, respectively. […] An additional proton in L^8-L^12 derives from the additional pyridine, pyrimidine or pyrazine ring, respectively; however, not all of them could be determined under these experimental conditions. The protonation constants that were obtained are given in Table 1 and the species distribution diagram of the protonated species of the selected ligand is presented in Fig 3.
To determine the acid-base properties of the studied ligands, UV-visible spectrophotometric experiments as a function of p[H] were carried out in the pH range 2–11.
UV-Visible titrations were also carried out. The absorption spectra (200–800 nm) were recorded using a Jasco V630 spectrophotometer. The initial pH of 3.2 mL ligand samples was adjusted to be acidic or basic and the titration of the solution was then carried out by adding known volumes of NaOH or HCl, respectively. The spectrophotometric data were fitted using the HypSpec program. Distribution diagrams of the species were calculated using Hyperquad Simulation and Speciation (HySS) software.

The conditions of series [9]: literature value; cited from earlier work.
For series [10], the system named is HCT116 p53^+/+ cells. Put plainly: Western blot of cell cycle and cell death proteins. The series is classed as cell-based, human. As to conditions: 24 h, L^9 at four-fold IC50. Here is the method:
(§3) The HCT116 (p53^+/+), U-251 and MCF-7 cells were seeded in 3 cm Petri dishes (Nunc) at a density of 0.5·10^6 cells/well and incubated overnight. […] Cells were harvested by trypsinization, washed with cold PBS and cell pellets were obtained by centrifugation at 2,000 rpm. Total cell lysates were obtained by dissolving the cell pellets in 150 μL of a RIPA buffer (Thermo Scientific) containing a Halt Protease Inhibitor Cocktail (Thermo Scientific) or Halt Phosphatase Inhibitor Cocktail (Thermo Scientific) along with 0.5 M EDTA and lysed for 20 min on ice on a rocking plate. The lysates were then sonicated, centrifuged at 10,000 rpm for 10 min at 4°C and the supernatants were collected for further analysis. The protein concentration was determined using a Micro BCA™ Protein Assay Kit (Thermo Scientific) according to the manufacturer’s instructions. Equal amounts of proteins (15 μg) were electrophoresed on SDS-Page gels and transferred onto a nitrocellulose membranes. The membranes were blocked in 5% non-fat milk prepared in PBS containing 0.1% Tween-20 (TPBS) for 1 h. After blocking, the membranes were incubated with specific primary antibodies: PARP, p53, p21^Waf1/Cip1, cdc2, cyclin E, cytochrome c, caspase-3,8,9 and GAPPH overnight at 4°C, then washed and incubated with horseradish peroxidase (HRP)-conjugated secondary antibodies for 1 h at room temperature. All the antibodies were purchased from Cell Signaling and were diluted 1:1000 in 5% milk in TPBS. Finally, the membranes were washed and incubated with a SuperSignal™ West Pico Chemiluminescent Substrate (Thermo Scientific). The chemiluminescence signals were captured using a ChemiDoc™ XRS+ System (BioRad). The experiments were performed at least three times.

The test system of series [11] is MCF-7 cells. In words: Western blot of cell cycle and cell death proteins. As to conditions: 24 h, L^9 at four-fold IC50. The series is classed as cell-based, human. The procedure: as §3
(In general: In western blotting, separated proteins are transferred to a membrane and probed.)

In series [12] the test system is U-251 cells. Put plainly: Western blot of cell cycle and cell death proteins. As to conditions: 24 h. The series is classed as cell-based, human. Here is the method: as §3

As to `Nc1cccnc1C=NNC(=S)N1CCN(c2ccc(Cl)cc2)CC1` [L^3, N’-[(3-aminopyridin-2-yl)methylidene]-4-(4-chlorophenyl)piperazine-1-carbothiohydrazide], the melting point (in general, the temperature, or range, at which the solid turns liquid) is 206 to 207 °C. For the same molecule, the IC50 (usually the concentration needed to halve the response being measured) in series [1] is 1.48 ± 0.335 µM. Moreover, the IC50 in [2] worked out at 0.167 ± 0.018 µM. Besides, the IC50 in series [3] worked out at 0.12 ± 0.005 µM. In series [4], the IC50 came to 0.204 ± 0.049 µM. In series [5], the IC50 was 0.128 ± 0.012 µM. For the same molecule, the IC50 in series [6] was more than 25 µM. In [7], the IC50 fell in the range of 0.12 to 0.2 µM.
Consider `NC(=S)NN=Cc1ncccc1N` [Triapine, 3-aminopyridine-2-carboxaldehyde thiosemicarbazone], for which the figures for the logK1 in series [8] and in series [9] were 10.64 and 10.86, respectively. Also, the logK2 was 3.48 in series [8] and 3.79 in series [9]. The logβ1H in series [8] (error 1σ) was 10.64 (1); in [9] it was 10.86 (1)^[[45]^]. The logβ2H in series [8] (error 1σ) is 14.12 (1); in [9] it was 14.65 (1)^[[45]^]. Besides, in series [1], the “Therapeutic index (TI) NHDF vs. Hs683” value is given as more than 14. Further, the IC50 in series [1] is 1.76 ± 0.292 µM; in series [2], 1.34 ± 0.338 µM; in [3] it was 1.12 ± 0.277 µM; in series [4] it was 2.33 ± 0.431 µM; in series [5], 1.48 ± 0.558 µM; in [6] it was more than 25 µM. In [2], the “Therapeutic index (TI) NHDF vs. HCT116 p53^-/-” value is listed as more than 19. Further, the “Therapeutic index (TI) NHDF vs. HCT116 p53^+/+” value in series [3] was more than 22. Moreover, the “Therapeutic index (TI) NHDF vs. MCF-7” value in series [4] is on record as more than 11. Besides, the “Therapeutic index (TI) NHDF vs. U-251” value in series [5] is listed as more than 17. Further, the cytochrome c result in [10], in [11] and in series [12] (U-251) was “release of cytochrome c” in each case. Besides, the “expression of cyclin E” value in series [10] is “overexpression”; in series [11] it was “overexpression”; in [12] (U-251, L^9 at four-fold IC50) it was “overexpression”. The “expression of cdc2” value in series [11] was “much stronger”. In addition, the PARP cleavage entry in series [12] (glioma cell (U-251)) is “PARP cleavage”.

The values above are taken from paper PMC5898707, “Piperazinyl fragment improves anticancer activity of Triapine” (PLoS ONE, 2018).
